From PubChem BioAssay AID1919006 (Molecular Pharmacology Branch, DTP, NCI, 2023)

Tested on: 885512-296-R-J2-PDC complex spheroid growth, % test/control
Test: Anticancer human tumor 885512-296-R-J2-PDC patient-derived breast carcinoma cell line growth inhibition [AhR]
Details: for IC50: curve of first compound; for viability, T/C: stronger effect = lower value
Outline: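 Spheroids combined tumor cells with HUVEC endothelial cells and human MSCs as stroma. AhR antagonists were paired with standard or investigational drugs, each dosed in half-log steps down from near clinical Cmax, or from 10 microM where Cmax was unknown.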

[1] = second compound 0.1 µM, first compound 0.0316 µM
[2] = second compound 0.1 µM, first compound 0.1 µM
[3] = second compound 0.1 µM, first compound 0.316 µM
[4] = second compound 0.1 µM, first compound 1 µM
[5] = second compound 0.1 µM, first compound 3.16 µM
[6] = second compound 0.1 µM, first compound 10 µM
[7] = second compound 0.316 µM, first compound 0.0316 µM
[8] = second compound 0.316 µM, first compound 0.1 µM
[9] = second compound 0.316 µM, first compound 0.316 µM
[10] = second compound 0.316 µM, first compound 1 µM
[11] = second compound 0.316 µM, first compound 3.16 µM
[12] = second compound 0.316 µM, first compound 10 µM
[13] = second compound 1 µM, first compound 0.0316 µM
[14] = second compound 1 µM, first compound 0.1 µM
[15] = second compound 1 µM, first compound 0.316 µM
[16] = second compound 1 µM, first compound 1 µM
[17] = second compound 1 µM, first compound 3.16 µM
[18] = second compound 1 µM, first compound 10 µM
[19] = second compound 3.16 µM, first compound 0.0316 µM
[20] = second compound 3.16 µM, first compound 0.1 µM
[21] = second compound 3.16 µM, first compound 0.316 µM
[22] = second compound 3.16 µM, first compound 1 µM
[23] = second compound 3.16 µM, first compound 3.16 µM
[24] = second compound 3.16 µM, first compound 10 µM
[25] = second compound 10 µM, first compound 0.0316 µM
[26] = second compound 10 µM, first compound 0.1 µM
[27] = second compound 10 µM, first compound 0.316 µM
[28] = second compound 10 µM, first compound 1 µM
[29] = second compound 10 µM, first compound 3.16 µM
[30] = second compound 10 µM, first compound 10 µM
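Also: spheroids exposed to compounds for seven days.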

Structure (SMILES)	IC50 (second compound 0.1 µM)	IC50 (second compound 0.316 µM)	IC50 (second compound 1 µM)	IC50 (second compound 3.16 µM)	IC50 (second compound 10 µM)	viability, T/C [1]	viability, T/C [2]	viability, T/C [3]	viability, T/C [4]	viability, T/C [5]	viability, T/C [6]	viability, T/C [7]	viability, T/C [8]	viability, T/C [9]	viability, T/C [10]	viability, T/C [11]	viability, T/C [12]	viability, T/C [13]	viability, T/C [14]	viability, T/C [15]	further results
CC1(C)CCC(CN2CCN(c3ccc(C(=O)NS(=O)(=O)c4ccc(NCC5CCOCC5)c([N+](=O)[O-])c4)c(Oc4cnc5[nH]ccc5c4)c3)CC2)=C(c2ccc(Cl)cc2)C1 + Cc1cncc(-c2nc(NCCc3c[nH]c4ccccc34)c3ncn(C(C)C)c3n2)c1	5.31 µM	5.22 µM	3.86 µM	< 0.0316 µM	< 0.0316 µM	108%	120%	100%	97.9%	73%	21.9%	95.8%	98.3%	97%	100%	68.4%	26.2%	87.5%	84.5%	77.8%	viability, T/C [16]: 71.8%; viability, T/C [17]: 57%; viability, T/C [18]: 23.2%; viability, T/C [19]: 42.2%; viability, T/C [20]: 49.5%; viability, T/C [21]: 50.7%; viability, T/C [22]: 41.4%; viability, T/C [23]: 39.7%; viability, T/C [24]: 29.8%; viability, T/C [25]: 12.7%; viability, T/C [26]: 13.7%; viability, T/C [27]: 14.3%; viability, T/C [28]: 12.4%; viability, T/C [29]: 13.8%; viability, T/C [30]: 10.1%
CC1COCCN1c1cc(C2(S(C)(=N)=O)CC2)nc(-c2ccnc3[nH]ccc23)n1 (stereo not given) + Cc1cncc(-c2nc(NCCc3c[nH]c4ccccc34)c3ncn(C(C)C)c3n2)c1	2.28 µM	1.95 µM	1.51 µM	0.282 µM	< 0.0316 µM	99.8%	102%	103%	95%	32.3%	4.89%	99.2%	99.5%	97.3%	81.9%	26.9%	6.7%	86.4%	86.1%	82.9%	viability, T/C [16]: 64.7%; viability, T/C [17]: 23.6%; viability, T/C [18]: 4.77%; viability, T/C [19]: 65%; viability, T/C [20]: 55.3%; viability, T/C [21]: 47.7%; viability, T/C [22]: 42.4%; viability, T/C [23]: 20.4%; viability, T/C [24]: 6.04%; viability, T/C [25]: 22.3%; viability, T/C [26]: 22.7%; viability, T/C [27]: 19.9%; viability, T/C [28]: 18.2%; viability, T/C [29]: 12.5%; viability, T/C [30]: 5%
